Reference: ChEMBL document CHEMBL5058564, “EUbOPEN Chemogenomics Library 2 (Incucyte)” (2022)

Assays:
Format in all cases: toxicity, cell-based
Fibroblast = experiment: Incucyte cell viability with human fibroblast; details: 10 µM, compound concentration 10 uM
U2OS = experiment: Incucyte cell viability with U2OS; details: human, 10 µM, compound concentration 10 uM
HEK-293T = experiment: Incucyte cell viability with HEK293T; details: human, 10 µM, compound concentration 10 uM
[1] = 0 h, replicate number 1, timepoint 0 hours
[2] = 0 h, replicate number 2, timepoint 0 hours
[3] = 6 h, replicate number 1, timepoint 6 hours
[4] = 12 h, replicate number 1, timepoint 12 hours
[5] = 12 h, replicate number 2, timepoint 12 hours
[6] = 18 h, replicate number 1, timepoint 18 hours
[7] = 24 h, replicate number 1, timepoint 24 hours
[8] = 6 h, replicate number 2, timepoint 6 hours
[9] = 18 h, replicate number 2, timepoint 18 hours
[10] = 24 h, replicate number 2, timepoint 24 hours
Note: unitless GR value; below 1 slowed growth and below 0 cell loss.

SMILES | Growth Rate (Fibroblast; [1]) | Growth Rate (Fibroblast; [2]) | Growth Rate (Fibroblast; [3]) | Growth Rate (Fibroblast; [5]) | Growth Rate (Fibroblast; [6]) | Growth Rate (Fibroblast; [7]) | Growth Rate (U2OS; [1]) | Growth Rate (U2OS; [2]) | Growth Rate (U2OS; [3]) | Growth Rate (U2OS; [4]) | Growth Rate (U2OS; [6]) | Growth Rate (U2OS; [7]) | Growth Rate (HEK-293T; [1]) | Growth Rate (HEK-293T; [2]) | Growth Rate (HEK-293T; [6]) | Growth Rate (HEK-293T; [7]) | Growth Rate (HEK-293T; [3]) | Growth Rate (HEK-293T; [4]) | Growth Rate (HEK-293T; [10]) | Growth Rate (Fibroblast; [8]) | other results
Cc1cnc(CNCC2(F)CCN(C(=O)c3ccc(F)c(Cl)c3)CC2)nc1 | 0.31 | 0.71 | 0.38 | 0.62 | 0.86 | 0.5 | -0.59 | 0.21 | 0.35 | 0.56 | 0.81 | 0.79 | 0.4 | 0.21 | 1 | 0.91 |  |  |  |  | Growth Rate (Fibroblast; [4]): 0.81; Growth Rate (U2OS; [8]): 0.86; Growth Rate (U2OS; [5]): 0.96; Growth Rate (U2OS; [9]): 0.78; Growth Rate (U2OS; [10]): 0.94
CCCCC[C@H](O)/C=C/[C@H]1CCC(=O)[C@@H]1CCCCCCC(=O)O | -0.34 | -0.08 |  |  |  | 0.96 | 0.47 |  | 0.51 | 0.66 | 0.5 | 0.96 | 0.81 | -0.24 | 0.7 | 0.77 | 0.64 | 0.56 | 0.67 |  | Growth Rate (HEK-293T; [8]): 0.48; Growth Rate (HEK-293T; [5]): 0.7; Growth Rate (HEK-293T; [9]): 0.73
O=C(O)c1ccccc1S(=O)(=O)NCCCCN1C(=O)c2cccc3cccc(c23)C1=O | 0.28 | 0.58 |  | 0.94 | 0.79 |  | 0.34 | -0.33 | 0.57 | 0.82 | 0.78 | 0.67 | 0.54 | 0.31 | 0.82 | 0.91 |  | 0.9 |  | 0.71 | Growth Rate (U2OS; [8]): 0.12; Growth Rate (U2OS; [5]): 0.64; Growth Rate (U2OS; [9]): 0.75; Growth Rate (U2OS; [10]): 0.75; Growth Rate (HEK-293T; [5]): 0.98; Growth Rate (HEK-293T; [9]): 0.89
CC(C)CCC[C@@H](C)[C@H]1CC[C@H]2[C@@H]3[C@H](O)C=C4C[C@@H](O)CC[C@]4(C)[C@H]3CC[C@]12C |  | -0.09 | 0.24 | 0.91 | 0.52 | 0.5 |  | 0.03 | 0.98 |  |  |  | 0.95 | -0.21 | 0.84 | 0.85 |  |  | 0.96 | 0.56 | Growth Rate (Fibroblast; [4]): 0.24; Growth Rate (Fibroblast; [9]): 0.84; Growth Rate (Fibroblast; [10]): 0.43
Br.Br.c1ncc(CC2CCNCC2)[nH]1 | 0.49 | 0.06 | 0.88 | 0.81 | 0.72 | 0.77 | 0.94 |  | 0.57 | 0.9 |  |  | 0.53 | 0.07 | 0.81 | 0.95 | 0.8 | 0.99 | 0.94 | 0.53 | Growth Rate (Fibroblast; [4]): 0.69; Growth Rate (Fibroblast; [9]): 0.93; Growth Rate (Fibroblast; [10]): 0.76; Growth Rate (HEK-293T; [5]): 0.73; Growth Rate (HEK-293T; [9]): 0.93
CCNC(=O)[C@H]1O[C@@H](n2cnc3c(N)ncnc32)[C@H](O)[C@@H]1O.O | -0.1 | 0.3 |  | 0.87 |  |  | -0.43 |  | 0.86 | 0.61 | 0.71 | 0.74 | -0.1 | -0.27 | 0.8 | 0.76 | 0.74 | 0.85 | 0.81 | 0.46 | 
CN(C)CCn1cc(S(=O)(=O)c2cccc(F)c2)c2cccnc21.Cl.Cl | -0.06 | 0.07 | -0.17 | 0.68 | 0.65 | 0.75 |  |  | 0.56 | 0.39 | 0.8 | 0.86 | 0.41 | 0.35 |  |  |  |  |  | 0.86 | Growth Rate (Fibroblast; [4]): 0.56; Growth Rate (Fibroblast; [9]): 0.64; Growth Rate (Fibroblast; [10]): 0.57; Growth Rate (U2OS; [8]): 0.76; Growth Rate (U2OS; [5]): 0.98; Growth Rate (HEK-293T; [8]): 0.9
COC(=O)[C@H](CCCNC(=N)N)NC(=O)CCCc1c(-c2ccccc2)[nH]c2c(F)cc(F)cc12.O=C(O)C(F)(F)F | 0.79 | 0.86 |  | 0.65 |  |  | -0.03 |  | 0.46 | 0.64 | 0.8 |  | 0.87 | 0.81 | 0.64 | 0.66 | 0.68 | 0.53 | 0.53 | 0.39 | Growth Rate (Fibroblast; [9]): 0.38; Growth Rate (Fibroblast; [10]): 0.46; Growth Rate (HEK-293T; [8]): 0.4; Growth Rate (HEK-293T; [5]): 0.32; Growth Rate (HEK-293T; [9]): 0.5
N=C(N)NCCC[C@H](NC(=O)COCC(c1ccccc1)c1ccccc1)C(=O)O.O=C(O)C(F)(F)F |  | 0.91 | 0.91 |  | 0.46 | 0.79 | 0.29 | 0.34 | 0.54 | 0.84 | 0.7 | 0.8 | 0.96 | 0.2 | 0.84 |  | 1 | 0.7 |  |  | Growth Rate (Fibroblast; [4]): 0.66; Growth Rate (U2OS; [8]): 0.72; Growth Rate (U2OS; [5]): 0.86; Growth Rate (U2OS; [9]): 0.91; Growth Rate (U2OS; [10]): 1
CC1(C)SSC(C)(C)[C@@H](NC(=O)[C@@H](N)Cc2ccc(O)cc2)C(=O)NCC(=O)N[C@@H](Cc2ccccc2)C(=O)N[C@H]1C(=O)O.O=C(O)C(F)(F)F | 0.24 | 0.08 | 0.67 |  |  | 0.94 |  | -0.57 |  |  |  |  | 0.77 |  | 0.85 |  | 0.73 |  |  |  | Growth Rate (U2OS; [8]): 0.94; Growth Rate (U2OS; [9]): 0.98; Growth Rate (U2OS; [10]): 0.94; Growth Rate (HEK-293T; [5]): 0.85
O=C([O-])[C@H]1O[C@H](OP(=O)([O-])OP(=O)([O-])OC[C@H]2O[C@@H](n3ccc(=O)[nH]c3=O)[C@H](O)[C@@H]2O)[C@H](O)[C@@H](O)[C@@H]1O.[Na+].[Na+].[Na+] |  | 0.57 |  |  | 0.88 | 0.93 | 0.32 | 0.71 | 0.46 | 0.9 | 0.9 |  | 0.81 | -0.02 | 0.64 | 0.84 | 0.43 | 0.65 | 0.91 |  | 
